Test system: Botrytis cinerea
Assay: In vitro antifungal activity, 96-well microtiter plates
Assay type: cell-based
Details: 25° C., day 3, 1.25 ppm natamycin, 6.25 ppm isopyrazam or both
Protocol: Subsequently, 100 μl of a Botrytis cinerea suspension prepared in PCB medium was used to inoculated each well with 2.5×10^3 spores/ml. […] After incubation of the microtiter plates at 25° C., the in vitro antifungal activity (%) of the individual active ingredients was assessed by calculating the reduction in mould growth observed in the presence of the active ingredient in comparison to the mould growth observed in the absence of the active ingredient. The expected antifungal activity (E in %) of the active ingredient combination was calculated according to the Colby equation (Colby, 1967): […]

C[C@@H]1C/C=C/C=C/C=C/C=C/[C@H](O[C@@H]2O[C@H](C)[C@@H](O)[C@H](N)[C@@H]2O)C[C@@H]2O[C@](O)(C[C@@H](O)C[C@H]3O[C@@H]3/C=C/C(=O)O1)C[C@H](O)[C@H]2C(=O)O [Natamycin, natamycin]
Observed antifungal activity O (%): 0%

Reference: patent US9167822B2, “Antifungal compositions” (DSM IP ASSETS B.V., priority 2012, dated 2015)
